# In patent publication EP4741383A1, “COMPOUND AND USE THEREOF AS ANTI-CANCER DRUG” (Tyligand Bioscience (Shanghai) Limited, priority 2023, dated 2025):
# Target: T1, MEG2 (Homo sapiens, UniProt P43378)
# T1 construct: made in house; host or cells: E. coli
# T1 sequence (P43378 1-593): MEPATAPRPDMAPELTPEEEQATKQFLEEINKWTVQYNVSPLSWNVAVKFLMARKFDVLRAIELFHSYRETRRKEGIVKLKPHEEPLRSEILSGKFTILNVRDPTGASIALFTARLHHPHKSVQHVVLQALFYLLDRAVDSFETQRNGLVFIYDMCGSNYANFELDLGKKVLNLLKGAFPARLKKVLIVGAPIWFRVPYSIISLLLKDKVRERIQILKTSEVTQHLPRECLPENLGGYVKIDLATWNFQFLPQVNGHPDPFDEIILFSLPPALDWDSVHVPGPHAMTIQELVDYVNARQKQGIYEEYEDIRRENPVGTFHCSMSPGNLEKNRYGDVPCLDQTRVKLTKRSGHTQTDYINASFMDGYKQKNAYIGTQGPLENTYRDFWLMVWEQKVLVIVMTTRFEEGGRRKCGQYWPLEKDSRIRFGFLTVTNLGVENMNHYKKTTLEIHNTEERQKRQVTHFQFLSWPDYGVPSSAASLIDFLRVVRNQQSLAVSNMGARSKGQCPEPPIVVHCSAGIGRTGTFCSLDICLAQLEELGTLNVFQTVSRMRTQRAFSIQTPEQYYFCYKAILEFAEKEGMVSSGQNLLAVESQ
# Assay: Tyrosine phosphatase selectivity (pNPP substrate), MEG2
# Assay type: biochemical
# Settings: MEG2, pNPP substrate
# Protocol: (§1) This experiment evaluated the selectivity of the disclosed compounds against tyrosine phosphatases, including SHP1, HePTP, Laforin, LMWPTP, LYP, PTP1B, PRL2, SSU72, VHR, FAP1, STEP, CDC14A, CD45, MEG2, and PP5, all expressed and purified from E. coli.
# (§2) Phosphatase activity was measured using p-nitrophenyl phosphate (pNPP) (Fisher Scientific) as the substrate in 50 mM 3,3-dimethylglutaric acid buffer (pH 7.0, containing 1 mM EDTA), with ionic strength adjusted to 0.15 M with NaCl. […] After 10-60 minutes, the reaction was quenched by adding 20 µL of 5 N NaOH. Wells without enzyme were used as controls for correction. The amount of the product, p-nitrophenol, was determined by measuring the absorbance at 405 nm using a Spectra MAX340 microplate spectrophotometer (Molecular Devices), with a molar extinction coefficient of 18000 M^-1cm^-1.
# (§3) Data were analyzed using GraphPad Prism software. Dose-response curves were obtained by fitting data using the nonlinear S-curve regression Dose-response-inhibition equation, and IC50 values were calculated.
row,Compound,IC50 [µM]
1,O=C(Nc1ccc(-c2cc3cc(F)c(-c4nnn[nH]4)cc3n2C2CCC2)cc1)C(=O)Nc1ccc(N2CC3COCC3C2)cc1 (stereo not shown) [Example 114],1.66
2,Cn1cc(-c2ccc(NC(=O)C(=O)Nc3ccc(-c4cc5cc(F)c(-c6nnc(C(F)(F)F)[nH]6)cc5n4C4CCC4)cc3)cc2)cn1 [Example 124],> 100
3,O=C(Nc1ccc(-c2cc3cc(F)c(-c4nnn[nH]4)cc3n2C2CCC2)cc1)C(=O)Nc1ccc(N2CCOCC2)cc1 [Example 47],0.99
4,O=C(Nc1ccc(-c2ccsc2)cc1)C(=O)Nc1ccc(-c2cc3ccc(-c4nnn[nH]4)nc3n2C2CCC2)cc1 [Example 129],7.2
5,O=C(Nc1ccc(-c2ccsc2)cc1)C(=O)Nc1ccc(-c2oc3cc(F)c(-c4nnn[nH]4)cc3c2C2CCC2)cc1 [Example 130],< 3

# Same assay, conditions: selectivity ratio MEG2 over SHP2
row,Compound,IC50PTP/IC50SHP2 MEG2
1,O=C(Nc1ccc(-c2cc3cc(F)c(-c4nnn[nH]4)cc3n2C2CCC2)cc1)C(=O)Nc1ccc(N2CC3COCC3C2)cc1 (stereo not shown) [Example 114],23.0
2,Cn1cc(-c2ccc(NC(=O)C(=O)Nc3ccc(-c4cc5cc(F)c(-c6nnc(C(F)(F)F)[nH]6)cc5n4C4CCC4)cc3)cc2)cn1 [Example 124],139.7
3,O=C(Nc1ccc(-c2cc3cc(F)c(-c4nnn[nH]4)cc3n2C2CCC2)cc1)C(=O)Nc1ccc(N2CCOCC2)cc1 [Example 47],15.7
4,O=C(Nc1ccc(-c2ccsc2)cc1)C(=O)Nc1ccc(-c2cc3ccc(-c4nnn[nH]4)nc3n2C2CCC2)cc1 [Example 129],122.0
5,O=C(Nc1ccc(-c2ccsc2)cc1)C(=O)Nc1ccc(-c2oc3cc(F)c(-c4nnn[nH]4)cc3c2C2CCC2)cc1 [Example 130],120

# Target: T2, PP5 (Homo sapiens, UniProt P53041)
# T2 construct: made in house; host or cells: E. coli
# T2 sequence (P53041 1-499): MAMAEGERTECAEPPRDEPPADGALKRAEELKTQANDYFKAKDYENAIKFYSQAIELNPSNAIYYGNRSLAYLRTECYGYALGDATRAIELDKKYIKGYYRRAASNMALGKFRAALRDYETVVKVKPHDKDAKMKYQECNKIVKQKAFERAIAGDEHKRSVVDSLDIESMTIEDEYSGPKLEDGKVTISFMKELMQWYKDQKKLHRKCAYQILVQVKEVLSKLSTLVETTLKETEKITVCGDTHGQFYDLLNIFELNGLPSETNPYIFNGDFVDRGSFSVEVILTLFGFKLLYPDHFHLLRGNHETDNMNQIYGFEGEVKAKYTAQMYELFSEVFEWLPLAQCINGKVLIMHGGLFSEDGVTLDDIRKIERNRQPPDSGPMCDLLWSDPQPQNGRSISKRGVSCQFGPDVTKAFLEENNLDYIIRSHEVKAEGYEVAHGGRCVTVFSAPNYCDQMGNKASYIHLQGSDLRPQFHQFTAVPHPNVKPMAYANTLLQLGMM
# Assay: Tyrosine phosphatase selectivity (pNPP substrate), PP5
# Assay type: biochemical
# Settings: PP5, pNPP substrate
# Protocol: as §1, §2, §3
row,Compound,IC50 [µM]
1,O=C(Nc1ccc(-c2cc3cc(F)c(-c4nnn[nH]4)cc3n2C2CCC2)cc1)C(=O)Nc1ccc(N2CC3COCC3C2)cc1 (stereo not shown) [Example 114],> 100
2,Cn1cc(-c2ccc(NC(=O)C(=O)Nc3ccc(-c4cc5cc(F)c(-c6nnc(C(F)(F)F)[nH]6)cc5n4C4CCC4)cc3)cc2)cn1 [Example 124],> 100
3,O=C(Nc1ccc(-c2cc3cc(F)c(-c4nnn[nH]4)cc3n2C2CCC2)cc1)C(=O)Nc1ccc(N2CCOCC2)cc1 [Example 47],> 100
4,O=C(Nc1ccc(-c2ccsc2)cc1)C(=O)Nc1ccc(-c2cc3ccc(-c4nnn[nH]4)nc3n2C2CCC2)cc1 [Example 129],> 50
5,O=C(Nc1ccc(-c2ccsc2)cc1)C(=O)Nc1ccc(-c2oc3cc(F)c(-c4nnn[nH]4)cc3c2C2CCC2)cc1 [Example 130],> 50

# Same assay, conditions: selectivity ratio PP5 over SHP2
row,Compound,IC50PTP/IC50SHP2 PP5
1,O=C(Nc1ccc(-c2cc3cc(F)c(-c4nnn[nH]4)cc3n2C2CCC2)cc1)C(=O)Nc1ccc(N2CC3COCC3C2)cc1 (stereo not shown) [Example 114],1388
2,Cn1cc(-c2ccc(NC(=O)C(=O)Nc3ccc(-c4cc5cc(F)c(-c6nnc(C(F)(F)F)[nH]6)cc5n4C4CCC4)cc3)cc2)cn1 [Example 124],139.7
3,O=C(Nc1ccc(-c2cc3cc(F)c(-c4nnn[nH]4)cc3n2C2CCC2)cc1)C(=O)Nc1ccc(N2CCOCC2)cc1 [Example 47],1587
4,O=C(Nc1ccc(-c2ccsc2)cc1)C(=O)Nc1ccc(-c2cc3ccc(-c4nnn[nH]4)nc3n2C2CCC2)cc1 [Example 129],847.5
5,O=C(Nc1ccc(-c2ccsc2)cc1)C(=O)Nc1ccc(-c2oc3cc(F)c(-c4nnn[nH]4)cc3c2C2CCC2)cc1 [Example 130],2000

# Target: T3, CD45 (Homo sapiens, UniProt P08575)
# T3 construct: made in house; host or cells: E. coli
# T3 sequence (P08575 26-1306): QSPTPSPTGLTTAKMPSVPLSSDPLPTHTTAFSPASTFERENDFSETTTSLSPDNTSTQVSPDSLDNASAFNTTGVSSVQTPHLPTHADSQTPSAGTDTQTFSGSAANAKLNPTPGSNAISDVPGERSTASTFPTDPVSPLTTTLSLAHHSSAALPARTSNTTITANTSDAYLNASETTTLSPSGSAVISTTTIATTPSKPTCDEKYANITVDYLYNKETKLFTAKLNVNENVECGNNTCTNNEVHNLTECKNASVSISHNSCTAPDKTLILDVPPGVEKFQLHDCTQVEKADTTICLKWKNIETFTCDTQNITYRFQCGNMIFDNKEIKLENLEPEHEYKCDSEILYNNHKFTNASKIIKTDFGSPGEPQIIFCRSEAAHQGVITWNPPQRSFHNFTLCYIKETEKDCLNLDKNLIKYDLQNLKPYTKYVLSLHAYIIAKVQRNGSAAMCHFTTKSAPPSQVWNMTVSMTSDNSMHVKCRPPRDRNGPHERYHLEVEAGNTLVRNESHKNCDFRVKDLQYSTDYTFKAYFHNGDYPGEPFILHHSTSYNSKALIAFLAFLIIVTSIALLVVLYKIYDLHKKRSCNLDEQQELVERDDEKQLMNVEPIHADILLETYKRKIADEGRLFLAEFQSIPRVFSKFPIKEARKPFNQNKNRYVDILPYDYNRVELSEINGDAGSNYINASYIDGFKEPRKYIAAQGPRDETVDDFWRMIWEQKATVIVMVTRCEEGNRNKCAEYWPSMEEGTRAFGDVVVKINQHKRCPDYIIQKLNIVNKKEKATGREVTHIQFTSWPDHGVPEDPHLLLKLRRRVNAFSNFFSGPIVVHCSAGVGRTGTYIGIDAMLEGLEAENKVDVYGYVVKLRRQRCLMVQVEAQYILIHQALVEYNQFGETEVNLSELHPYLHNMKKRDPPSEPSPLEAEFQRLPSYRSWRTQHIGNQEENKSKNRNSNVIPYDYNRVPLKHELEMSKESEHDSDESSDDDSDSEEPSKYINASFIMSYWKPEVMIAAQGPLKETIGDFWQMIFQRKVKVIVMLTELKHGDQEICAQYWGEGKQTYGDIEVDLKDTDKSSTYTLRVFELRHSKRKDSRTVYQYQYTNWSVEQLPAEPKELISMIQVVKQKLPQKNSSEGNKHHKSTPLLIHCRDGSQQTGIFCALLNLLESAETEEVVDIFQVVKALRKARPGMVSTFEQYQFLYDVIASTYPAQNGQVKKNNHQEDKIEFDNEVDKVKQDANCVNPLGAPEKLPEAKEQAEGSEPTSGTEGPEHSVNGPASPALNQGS
# Assay: Tyrosine phosphatase selectivity (pNPP substrate), CD45
# Assay type: biochemical
# Settings: CD45, pNPP substrate
# Protocol: as §1, §2, §3
row,Compound,IC50 [µM]
1,O=C(Nc1ccc(-c2cc3cc(F)c(-c4nnn[nH]4)cc3n2C2CCC2)cc1)C(=O)Nc1ccc(N2CC3COCC3C2)cc1 (stereo not shown) [Example 114],1.81
2,Cn1cc(-c2ccc(NC(=O)C(=O)Nc3ccc(-c4cc5cc(F)c(-c6nnc(C(F)(F)F)[nH]6)cc5n4C4CCC4)cc3)cc2)cn1 [Example 124],> 100
3,O=C(Nc1ccc(-c2cc3cc(F)c(-c4nnn[nH]4)cc3n2C2CCC2)cc1)C(=O)Nc1ccc(N2CCOCC2)cc1 [Example 47],1.06
4,O=C(Nc1ccc(-c2ccsc2)cc1)C(=O)Nc1ccc(-c2cc3ccc(-c4nnn[nH]4)nc3n2C2CCC2)cc1 [Example 129],41.5
5,O=C(Nc1ccc(-c2ccsc2)cc1)C(=O)Nc1ccc(-c2oc3cc(F)c(-c4nnn[nH]4)cc3c2C2CCC2)cc1 [Example 130],> 50

# Same assay, conditions: selectivity ratio CD45 over SHP2
row,Compound,IC50PTP/IC50SHP2 CD45
1,O=C(Nc1ccc(-c2cc3cc(F)c(-c4nnn[nH]4)cc3n2C2CCC2)cc1)C(=O)Nc1ccc(N2CC3COCC3C2)cc1 (stereo not shown) [Example 114],25.1
2,Cn1cc(-c2ccc(NC(=O)C(=O)Nc3ccc(-c4cc5cc(F)c(-c6nnc(C(F)(F)F)[nH]6)cc5n4C4CCC4)cc3)cc2)cn1 [Example 124],139.7
3,O=C(Nc1ccc(-c2cc3cc(F)c(-c4nnn[nH]4)cc3n2C2CCC2)cc1)C(=O)Nc1ccc(N2CCOCC2)cc1 [Example 47],16.8
4,O=C(Nc1ccc(-c2ccsc2)cc1)C(=O)Nc1ccc(-c2cc3ccc(-c4nnn[nH]4)nc3n2C2CCC2)cc1 [Example 129],703.4
5,O=C(Nc1ccc(-c2ccsc2)cc1)C(=O)Nc1ccc(-c2oc3cc(F)c(-c4nnn[nH]4)cc3c2C2CCC2)cc1 [Example 130],2000

# Target: T4, VHR (Homo sapiens, UniProt P51452)
# T4 construct: made in house; host or cells: E. coli
# T4 sequence (P51452 whole entry, species assumed): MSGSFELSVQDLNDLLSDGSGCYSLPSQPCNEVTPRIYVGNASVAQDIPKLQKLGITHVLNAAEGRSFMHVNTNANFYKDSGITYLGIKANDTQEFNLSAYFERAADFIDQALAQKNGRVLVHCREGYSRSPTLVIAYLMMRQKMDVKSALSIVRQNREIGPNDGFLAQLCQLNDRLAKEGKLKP
# Assay: Tyrosine phosphatase selectivity (pNPP substrate), VHR
# Assay type: biochemical
# Settings: VHR, pNPP substrate
# Protocol: as §1, §2, §3
row,Compound,IC50 [µM]
1,O=C(Nc1ccc(-c2cc3cc(F)c(-c4nnn[nH]4)cc3n2C2CCC2)cc1)C(=O)Nc1ccc(N2CC3COCC3C2)cc1 (stereo not shown) [Example 114],2.14
2,Cn1cc(-c2ccc(NC(=O)C(=O)Nc3ccc(-c4cc5cc(F)c(-c6nnc(C(F)(F)F)[nH]6)cc5n4C4CCC4)cc3)cc2)cn1 [Example 124],> 100
3,O=C(Nc1ccc(-c2cc3cc(F)c(-c4nnn[nH]4)cc3n2C2CCC2)cc1)C(=O)Nc1ccc(N2CCOCC2)cc1 [Example 47],1.15
4,O=C(Nc1ccc(-c2ccsc2)cc1)C(=O)Nc1ccc(-c2cc3ccc(-c4nnn[nH]4)nc3n2C2CCC2)cc1 [Example 129],< 3
5,O=C(Nc1ccc(-c2ccsc2)cc1)C(=O)Nc1ccc(-c2oc3cc(F)c(-c4nnn[nH]4)cc3c2C2CCC2)cc1 [Example 130],< 3

# Same assay, conditions: selectivity ratio VHR over SHP2
row,Compound,IC50PTP/IC50SHP2 VHR
1,O=C(Nc1ccc(-c2cc3cc(F)c(-c4nnn[nH]4)cc3n2C2CCC2)cc1)C(=O)Nc1ccc(N2CC3COCC3C2)cc1 (stereo not shown) [Example 114],29.7
2,Cn1cc(-c2ccc(NC(=O)C(=O)Nc3ccc(-c4cc5cc(F)c(-c6nnc(C(F)(F)F)[nH]6)cc5n4C4CCC4)cc3)cc2)cn1 [Example 124],139.7
3,O=C(Nc1ccc(-c2cc3cc(F)c(-c4nnn[nH]4)cc3n2C2CCC2)cc1)C(=O)Nc1ccc(N2CCOCC2)cc1 [Example 47],18.2
4,O=C(Nc1ccc(-c2ccsc2)cc1)C(=O)Nc1ccc(-c2cc3ccc(-c4nnn[nH]4)nc3n2C2CCC2)cc1 [Example 129],50.8
5,O=C(Nc1ccc(-c2ccsc2)cc1)C(=O)Nc1ccc(-c2oc3cc(F)c(-c4nnn[nH]4)cc3c2C2CCC2)cc1 [Example 130],120
